Measurements published in ChEMBL document CHEMBL1150557, “Molecular design of novel PGI2 agonists without PG skeleton. I” (Bioorg Med Chem Lett, 1995).

species on record: Homo sapiens; assay: Evaluated for inhibition of 4 uM ADP-induced human platelet aggregation; type: functional, organism-based

IC50	Structure (SMILES)
2.1 µM	O=C(O)COc1cccc2c1CCCC2CC/C=N/OC(c1ccccc1)c1ccccc1 (configuration not stated)
1.1 µM	O=C(O)COc1cccc2c1CCC(C/C=N/OC(c1ccccc1)c1ccccc1)C2 (configuration not stated)

target: Prostacyclin receptor (Homo sapiens, UniProt P43119); assay: Prostaglandin I2 receptor binding by displacement of [3H]iloprost from human platelets
Sequence (P43119 whole entry): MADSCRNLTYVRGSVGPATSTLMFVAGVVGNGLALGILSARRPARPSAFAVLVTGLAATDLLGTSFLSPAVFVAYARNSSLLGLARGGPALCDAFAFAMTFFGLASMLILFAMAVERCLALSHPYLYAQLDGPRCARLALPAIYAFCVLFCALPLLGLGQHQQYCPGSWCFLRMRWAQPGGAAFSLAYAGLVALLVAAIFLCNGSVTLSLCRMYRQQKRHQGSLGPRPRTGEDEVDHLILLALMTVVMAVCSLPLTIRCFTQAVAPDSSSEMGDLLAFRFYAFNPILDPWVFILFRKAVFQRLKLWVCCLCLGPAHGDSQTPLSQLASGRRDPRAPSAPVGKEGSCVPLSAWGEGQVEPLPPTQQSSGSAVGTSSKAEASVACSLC

Structure (SMILES)	IC50
O=C(O)COc1cccc(CCC/C=N/OC(c2ccccc2)c2ccccc2)c1	3.9 µM
CCCCCC(O)/C=C/CC1CCc2c(cccc2OCC(=O)O)C1 (configuration not stated)	7.8 µM
O=C(O)COc1cccc2c1CCC(C/C=C/C(O)Cc1ccccc1)C2 (configuration not stated)	4.9 µM
CCCCCC(O)/C=C/CCCc1cccc(OCC(=O)O)c1 (configuration not stated)	23 µM
O=C(O)COc1cccc2c1CCCC2CC/C=N/OC(c1ccccc1)c1ccccc1 (configuration not stated)	0.6 µM
CCCCCC(O)/C=C/CCC1CCCc2c(OCC(=O)O)cccc21 (configuration not stated)	9.6 µM

The next lines start with the values.

IC50	Structure (SMILES)
5.3 µM	O=C(O)COc1cccc2c1CCC(C/C=C/CCc1ccccc1)C2 (configuration not stated)
3.1 µM	O=C(O)COc1cccc2c1CCC(C/C=C/CC(c1ccccc1)c1ccccc1)C2 (configuration not stated)
0.65 µM	O=C(O)COc1cccc2c1CCC(C/C=N/OC(c1ccccc1)c1ccccc1)C2 (configuration not stated)
3 µM	O=C(O)COc1cccc2c1CCC(C/C=C\CC(c1ccccc1)c1ccccc1)C2 (configuration not stated)
